Article PMC9061853, “Luminescent bis(benzo[d]thiazolyl)quinoxaline: facile synthesis, nucleic acid and protein BSA interaction, live-cell imaging, biopharmaceutical research and cancer theranostic application” (RSC Advances, 2019)

Experiments:
BSA = target: T1, BSA (Bos taurus, UniProt P02769); test: BSA binding study (tryptophan emission quenching); parameters: species or system bovine
T1 construct: purchased Himedia Chemical Limited
Procedure: Serum albumin has the capacity to bind with the ligands and helps in the uptake of the drug inside the cells. BSA is commonly used in this study because of its similar structural homology to HSA. […] A significant quenching of BSA fluorescence can be observed upon interaction with drug molecule.[27] The BSA solution of 3 μM concentration was titrated against 10–100 μM of the drug 7e upon excitation of 280 nm. […] The Stern–Volmer constant (KBSA), quenching constant (Kq), binding constant (K), a number of binding sites (n) were calculated from the eqn (5) and (6) (Fig. S4b and c ^†). The Kq values of the newly synthesized compounds were in the order of 10^12 M^−1 s^−1 which were higher enough than maximum scatter collision quenching constant (2.0 × 10^10 M^−1 s^−1) of BSA quenchers (Table 2).[28] High potency of these complexes in cancer cells may be attributed by the strong binding with serum albumin which overcomes the drug resistance by GSH. […]
BSA is a carrier protein that increases solubility of the drug in the blood by binding to it.
Fluorescence spectroscopy is an efficient method to study the interaction of the BSA with the compound by quenching mechanism. The binding of the complexes to the bovine serum albumin (BSA) were measured by tryptophan emission quenching study. The complex […]
solutions (0-60 μM) were gradually added to the solution of BSA (2 μM) in 5 mM Tris- […]
HCl/NaCl buffer (pH 7.2) and the quenching of the emission signals at 350 nm (λex = 295 […]
nm) were recorded. The emission intensity of BSA decreases gradually on increasing the […]
complex concentration. The quenching constant (KBSA) has been determined quantitatively by […]
using Stern-Volmer equation. Stern-Volmer plots of I0/I vs. [complex] were made using the […]
corrected fluorescence data taking into account the effect of dilution. Linear fit of the data […]
Where I0 and I are the emission intensities of BSA in the absence and in the presence of […]
quencher of concentration [Q], gave the quenching constant (K BSA) using Origin Pro 8.5 […]
software. kq is the quenching rate constant, τ0 is the average lifetime of the tryptophan in BSA […]
without quencher reported as 1 x 10-8 sec. The binding propensity of the quenchers with […]
respective serum proteins were expressed by Scatchard equation. For such static quenching […]
interaction, the binding constant (K) and the number of binding sites (n) can be determined […]
according to the Scatchard equation: […]
The linear fitting of the log (I0-I)/I vs. log [Q] plot gives values of n and K from slope and […]
2.8. Stability study, Solubility study, metabolic stability study, Caco-2 permeability study
%Nominal = Mean of calculated concentration of test samples ×100 ….(7) […]
Calculated concentration from calibration curve
CL = k × volume of reaction mixture (mL) … (8) […]
intr protein content (mg)

[1] = Biopharmaceutical classification (BCS / BDDCS); settings: primarily classified
[2] = Metabolic stability in rat liver microsomes; assay type: in vitro ADME; settings: for % Metabolism in 30 min: 0.5 μM, 0.5 mg ml^−1 protein, NADPH, 37 °C; for half-life at 0.5 μM: rat, liver microsomes
Procedure: The in vitro metabolic rate of 7g was determined in liver microsomes and the intrinsic clearance (CLintr) was estimated. The study was conducted at 0.5 μM substrate concentration and microsomal protein concentration of 0.5 mg ml^−1. Metabolic stability study in the presence of microsomes and cofactor NADPH was performed at 37 °C, 60 rpm for 30 min time duration. NADPH free control incubation was performed simultaneously for 30 min to understand if there are any non-enzymatic metabolism related issues. […] Intrinsic clearance as given in Table 6, was calculated using eqn (8). ^†

[3] = Buffer stability (LC-MS/MS); assay type: physicochemical; settings: pH 7.4 buffer, read-out: % Remaining in 120 min
Procedure: LC-MS/MS methods were developed for compound 7g to quantify the drug concentration and in vitro study (i.e. buffer solubility, buffer stability, metabolic stability, and permeability) in a systemic manner (Table 4). Chromatographic elution conditions were set with the use of 5 mM ammonium formate containing 0.1% formic acid and acetonitrile containing 0.1% formic acid with C8, Kromasil, and 4.6 × […] as a stationary phase (Fig. S5a and b ^†). […] For the data analysis, % accuracy of compound 7g was calculated and it was soluble up to 25 μM (Fig. 3, eqn (7) ^†).
The in vitro solubility and stability of 7g were evaluated in pH 7.4 buffer. The buffer solubility and stability studies were conducted at six different concentrations ranging from 3.13 to 100 μM. For the data analysis, % stability of compound 7g at 120 min was calculated with respect to 0 min time point samples and it was stable up to 2 hours in pH 7.4 buffers. Data analysis was performed through the eqn (8) ^† and was tabulated (Table 4). Compound 7g found to be stable up to 2 hours with % remaining of 71% in pH 7.4.

T1 sequence (P02769 25-607): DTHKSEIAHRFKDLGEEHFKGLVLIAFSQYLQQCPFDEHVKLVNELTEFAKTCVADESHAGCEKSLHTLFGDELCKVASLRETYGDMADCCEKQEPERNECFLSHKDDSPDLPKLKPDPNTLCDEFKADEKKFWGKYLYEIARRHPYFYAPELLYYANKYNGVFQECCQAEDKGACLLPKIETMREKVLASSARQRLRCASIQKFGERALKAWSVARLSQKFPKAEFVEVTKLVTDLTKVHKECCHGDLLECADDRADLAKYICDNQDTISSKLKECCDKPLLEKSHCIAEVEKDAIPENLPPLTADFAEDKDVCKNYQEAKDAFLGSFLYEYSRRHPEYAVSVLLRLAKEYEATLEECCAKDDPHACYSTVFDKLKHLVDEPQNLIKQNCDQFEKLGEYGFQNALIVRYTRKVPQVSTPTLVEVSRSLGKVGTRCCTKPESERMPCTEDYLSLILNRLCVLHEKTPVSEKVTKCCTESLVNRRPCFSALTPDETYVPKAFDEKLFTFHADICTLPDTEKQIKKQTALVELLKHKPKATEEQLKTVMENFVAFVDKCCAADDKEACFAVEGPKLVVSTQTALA

BCS class [1] | BDDCS class [1] | CLint ([2]; RLM set 1) [μl per min per mg protein] | % Metabolism in 30 min ([2]; RLM set 1) [%] | CLint ([2]; RLM set 2) [μl per min per mg protein] | % Metabolism in 30 min ([2]; RLM set 2) [%] | half-life at 0.5 μM ([2]; RLM set 1) [h] | half-life at 0.5 μM ([2]; RLM set 2) [h] | remaining at 2 h, 3.13 μM ([3]; 3.13 μM) [%] | remaining at 2 h, 6.25 μM ([3]; 6.25 μM) [%] | remaining at 2 h, 12.5 μM ([3]; 12.50 μM) [%] | remaining at 2 h, 25 μM ([3]; 25.00 μM) [%] | remaining at 2 h, 50 μM ([3]; 50.00 μM) [%] | remaining at 2 h, 100 μM ([3]; 100.00 μM) [%] | SMILES | K BSA, Stern–Volmer quenching constant (BSA) [M⁻¹] | K q, quenching rate constant (BSA) [M⁻¹ s⁻¹] | quenching of BSA fluorescence (BSA; BSA 3 μM titrated with 10–100 μM drug, excitation 280 nm) | n, number of binding sites (BSA; Scatchard equation) | Kd (BSA; Scatchard equation, read-out: K, binding constant with BSA (converted)) [mM]
– | – | – | – | – | – | – | – | – | – | – | – | – | – | Clc1cc2nc(COc3ccccc3-c3nc4ccccc4s3)c(COc3ccccc3-c3nc4ccccc4s3)nc2cc1Cl [Compound 7e] | 10200 | 1.02e+12 | more than 50% | 1.87 | 3.82
BCS class 4 | BDDCS class 4 | 4 | 12 | 14 | 19 | 5.85 | 1.69 | 59 | 68 | 81 | 110 | 110 | 71 | COc1ccc2nc(COc3ccccc3-c3nc4ccccc4s3)c(COc3ccccc3-c3nc4ccccc4s3)nc2c1 [Compound 7g, 2,2'-((((6-methoxyquinoxaline-2,3-diyl)bis(methylene))bis(oxy))bis(2,1-phenylene))bis(benzo[d]thiazole)] | – | – | – | – | –
